In patent publication US20260078099A1, “COMPOUND, PREPARATION METHOD THEREOF, AND LIPID NANOPARTICLE AND PHARMACEUTICAL COMPOSITION” (priority 2023, published 2026):

Columns and labels:
[1] = LNP encapsulation efficiency (Quant-it Ribogreen); assay type: physicochemical; conditions: mRNA LNP, cationic lipid/DSPC/cholesterol/PEG-lipid 50:10:38.5:1.5
Description: Encapsulation Efficiency: The encapsulation efficiency of a therapeutic and/or prophylactic agent refers to the amount of the therapeutic and/or prophylactic agent encapsulated within or otherwise associated with the nanoparticle composition relative to the initial amount provided during preparation. Encapsulation efficiency is desirably high (such as close to 100%). Encapsulation efficiency can be measured, for example, by comparing the amount of therapeutic and/or prophylactic agent in a solution containing the nanoparticle composition before and after disruption of the nanoparticle composition using one or more organic solvents or detergents. Fluorescence can be used to measure the amount of free therapeutic and/or prophylactic agent (e.g., RNA) in solution. For the nanoparticle compositions described herein, the encapsulation efficiency of the therapeutic and/or prophylactic agent may be at least 50%, such as 50%, 55%, 60%, 65%, 70%, 75%, 80%, 85%, 90%, 91%, 92%, 93%, 94%, 95%, 96%, 97%, 98%, 99%, or 100%. In some embodiments, the encapsulation efficiency may be at least 80%. In certain embodiments, the encapsulation efficiency may be at least 90%.
(§1) In summary, the cationic lipid described herein, DSPC, cholesterol, and PEG-lipid were dissolved in ethanol at a molar ratio of 50:10:38.5:1.5 and diluted in 10 mM to 50 mM citrate buffer at pH 4 with mRNA. Using a microfluidic device, the lipid ethanol solution was mixed with mRNA aqueous solution at a volume ratio of 1:3 and a total flow rate ranging from 6-30 mL/min, preparing LNPs with a total lipid to mRNA weight ratio of approximately 10:1 to 30:1. Ethanol was removed by dialysis and replaced with PBS. Finally, the lipid nanoparticles were filtered through a 0.22 μm sterile filter.
(§2) The size of lipid nanoparticles was measured by dynamic light scattering using a Malvern Zetasizer Nano ZS (Malvern, UK) with a 90° scattering detection mode. The encapsulation efficiency of lipid nanoparticles was determined using the Quant-it Ribogreen RNA Quantitation Kit (Thermo Fisher Scientific, UK) according to the manufacturer's instructions. The apparent pKa of LNP formulations correlates with the delivery efficiency of nucleic acids by LNPs in vivo. The apparent pKa ranges from approximately 5 to 7. An analysis based on fluorescence from 2-(p-tolylamino)-6-naphthalenesulfonic acid (TNS) was used to determine the apparent pKa of formulations. As described above, LNP formulations containing cationic lipid/DSPC/cholesterol/DMG-PEG (50/10/38.5/1.5 mol %) in PBS were prepared. A 300 μM stock solution of TNS in distilled water was prepared. LNP formulations were diluted to 0.1 mg/mL total lipid in 3 mL of buffer solution containing 50 mM sodium citrate, 50 mM sodium phosphate, 50 mM sodium borate, and 30 mM sodium chloride (pH ranged from 3 to 9). […] S-shaped curve best-fit analysis was applied to the fluorescence data, and the pKa value was measured as the pH value producing half-maximal fluorescence intensity.

[2] = LNP size and PDI by dynamic light scattering; assay type: physicochemical; conditions: mRNA LNP, cationic lipid/DSPC/cholesterol/PEG-lipid 50:10:38.5:1.5
Description: as §1, §2

[3] = LNP zeta potential; assay type: physicochemical; conditions: mRNA LNP
Description: Nanoparticle compositions can be characterized by various methods. For example, the morphology and size distribution of nanoparticle compositions can be examined using microscopy (e.g., transmission electron microscopy or scanning electron microscopy). The zeta potential can be measured using dynamic light scattering or potentiometric titration. Dynamic light scattering can also be used to determine particle size. Instruments such as the Zetasizer Nano ZS (Malvern Instruments Ltd., Malvern, Worcestershire, UK) can also be used to measure multiple characteristics of nanoparticle compositions, such as particle size, polydispersity index, and zeta potential.
[…]: The zeta potential of the nanoparticle composition can indicate the electrophoretic potential of the composition. For example, zeta potential may describe the surface charge of the nanoparticle composition. Nanoparticle compositions with relatively low positive or negative charges are generally desirable, as materials with higher charges may interact undesirably with cells, tissues, and other components in the body. In some embodiments, the zeta potential of the nanoparticle composition may be about −10 mV to about +20 mV, about −10 mV to about +15 mV, about −10 mV to about +10 mV, about −10 mV to about +5 mV, about −10 mV to about 0 mV, about −10 mV to about −5 mV, about −5 mV to about +20 mV, about −5 mV to about +15 mV, about −5 mV to about +10 mV, about −5 mV to about +5 mV, about −5 mV to about 0 mV, about 0 mV to about +20 mV, about 0 mV to about +15 mV, about 0 mV to about +10 mV, about 0 mV to about +5 mV, about +5 mV to about +20 mV, about +5 mV to about +15 mV, or about +5 mV to about +10 mV.

[4] = tested on: mice; assay: Bioluminescent study, intramuscular injection of F-luc mRNA LNPs; assay type: in vivo; conditions: F-luc luminescence flux normalized to MC3; 0.25 mg/kg intramuscular, mice n=3, 6-hour time point
Description: The efficacy of nanoparticle compositions was evaluated using bioluminescent studies. A dose of 0.25 mg/kg (mpk) of the formulation was administered to mice (n=3) via intramuscular injection, and bioluminescence was measured at a 6-hour time point. The test lipid nanoparticles from the MC3 formulation were evaluated, and in some cases, controls (e.g., PBS controls) were assessed for comparison.
The characteristics of the test lipid nanoparticles measured from the test groups, including F-luc luminescence intensity, are listed in the table below.

SMILES	Encapsulation efficiency (%) [1]	PDI [2]	Size (nm) [2]	Zeta potential (mV) [3]	Relative Total flux [4]
CCCCCCCCC(CCCCCC)C(=O)OCCCCCCN(CCCCO)CCCCCCOC(=O)C(CCCCCC)CCCCCCCC (centres unmarked) [ALC-0315]	93.27%	0.082	70.12 nm	−0.76 mV	A (A: ≥2)
CCCCCCCCC(C(=O)NCCCCCCCCCC(=O)OC(CCCCCC)CCCCCC)N(CCCN1CCCC1)C(=O)CCCCCCCCCC(=O)OC(CCCCCC)CCCCCC (centres unmarked) [Compound A1]	67.41%	0.135	82.96 nm	−12.25 mV	B (B: ≥1 and <2)
CCCCCCCC(C(=O)NCCCCCCCCCC(=O)OC(CCCCCC)CCCCCC)N(CCCN1CCCC1)C(=O)CCCCCCCCCC(=O)OC(CCCCCC)CCCCCC (centres unmarked) [Compound A2]	50.77%	0.153	78.3 nm	−2.69 mV	C (C: ≥0.1 and <1)
CCCCCCCCC(CCCCCC)COC(=O)CCCCCCCCCNC(=O)C(CCCCCCCC)N(CCCN1CCCC1)C(=O)CCCCCCCCCC(=O)OCC(CCCCCC)CCCCCCCC (centres unmarked) [Compound A4]	97.34%	0.202	72.85 nm	5.65 mV	D (D: <0.1.)
CCCCCCCCC(C(=O)NCCCCCCCCCC(=O)OCCCCCC)N(CCCN1CCCC1)C(=O)CCCCCCCCCC(=O)OC(CCCCCC)CCCCCC (centres unmarked) [Compound A5]	92.48%	0.13	60.62 nm	−17.73 mV	D (D: <0.1.)
CCCCCCCCC(C(=O)NCCCCCCCCCC(=O)OCCCCCC)N(CCCN1CCCC1)C(=O)CCCCCCCCCC(=O)OCCCCCC (centres unmarked) [Compound A6]	84.80%	0.234	55.75 nm	−9.54 mV	A (A: ≥2)
CCCCCCCC(C(=O)NCCCCCCCCCC(=O)OC(CCCCCC)CCCCCC)N(CCCN1CCCC1)C(=O)CCCCCCCCCC(=O)OCC12CC3CC(CC(C3)C1)C2 (centres unmarked) [Compound A7]	96.10%	0.274	62.53 nm	4.99 mV	C (C: ≥0.1 and <1)
CCCCCCCCC(C(=O)NCCCCCCCCCC(=O)OCC12CC3CC(CC(C3)C1)C2)N(CCCN1CCCC1)C(=O)CCCCCCCCCC(=O)OC(CCCCCC)CCCCCC (centres unmarked) [Compound A8]	92.88%	0.16	66.98 nm	−19.03 mV	D (D: <0.1.)
CCCCCCCC(C(=O)NCCCCCCCCCC(=O)OC(CCCCCC)CCCCCC)N(CCCN1CCCC1)C(=O)CCCCCCCCCC(=O)OCC1CC=CCC1 (centres unmarked) [Compound A9]	93.54%	0.191	64.58 nm	−18.67 mV	D (D: <0.1.)
CCCCCCCCC(C(=O)NCCCCCCCCCC(=O)OCC1CC=CCC1)N(CCCN1CCCC1)C(=O)CCCCCCCCCC(=O)OC(CCCCCC)CCCCCC (centres unmarked) [Compound A10]	54.08%	0.415	61.16 nm	−3.45 mV	A (A: ≥2)
CCCCCCCCC(C(=O)NCCCCCCCCCC(=O)OC(CCCCCC)CCCCCC)N(CCCN(C)C)C(=O)CCCCCCCCCC(=O)OC(CCCCCC)CCCCCC (centres unmarked) [Compound A11]	71.39%	0.075	225.6 nm	−2.89 mV	D (D: <0.1.)
CCCCCCCC(C(=O)NCCCCCCCCCC(=O)OC(CCCCCC)CCCCCC)N(CCCN(C)C)C(=O)CCCCCCCCCC(=O)OC(CCCCCC)CCCCCC (centres unmarked) [Compound A12]	24.84%	0.207	63.48 nm	−9.55 mV	C (C: ≥0.1 and <1)
CCCCCCCCC(C(=O)NCCCCCCCCCC(=O)OC(CCCC)CCCCCC)N(CCCN(C)C)C(=O)CCCCCCCCCC(=O)OC(CCCC)CCCCCC (centres unmarked) [Compound A13]	94.62%	0.157	118.5 nm	2.90 mV	B (B: ≥1 and <2)
CCCCCCCCC(CCCCCC)COC(=O)CCCCCCCCCNC(=O)C(CCCCCCCC)N(CCCN(C)C)C(=O)CCCCCCCCCC(=O)OCC(CCCCCC)CCCCCCCC (centres unmarked) [Compound A14]	94.31%	0.228	89.33 nm	4.02 mV	C (C: ≥0.1 and <1)
CCCCCCCCC(C(=O)NCCCCCCCCCC(=O)OCCCCCC)N(CCCN(C)C)C(=O)CCCCCCCCCC(=O)OC(CCCCCC)CCCCCC (centres unmarked) [Compound A15]	93.95%	0.251	113.2 nm	4.75 mV	A (A: ≥2)
CCCCCCCCC(C(=O)NCCCCCCCCCC(=O)OCCCCCC)N(CCCN(C)C)C(=O)CCCCCCCCCC(=O)OCCCCCC (centres unmarked) [Compound A16]	41.55%	0.183	78.42 nm	0.78 mV	C (C: ≥0.1 and <1)
CCCCCCCC(C(=O)NCCCCCCCCCC(=O)OC(CCCCCC)CCCCCC)N(CCCN(C)C)C(=O)CCCCCCCCCC(=O)OCC12CC3CC(CC(C3)C1)C2 (centres unmarked) [Compound A17]	53.24%	0.07	60.77 nm	−0.68 mV	D (D: <0.1.)
CCCCCCCCC(C(=O)NCCCCCCCCCC(=O)OCC12CC3CC(CC(C3)C1)C2)N(CCCN(C)C)C(=O)CCCCCCCCCC(=O)OC(CCCCCC)CCCCCC (centres unmarked) [Compound A18]	87.17%	0.136	78.14 nm	−15.20 mV	D (D: <0.1.)
CCCCCCCC(C(=O)NCCCCCCCCCC(=O)OC(CCCCCC)CCCCCC)N(CCCN(C)C)C(=O)CCCCCCCCCC(=O)OCC1CC=CCC1 (centres unmarked) [Compound A19]	89.13%	0.093	78.64 nm	−0.20 mV	D (D: <0.1.)
